The numbers were not newly measured in US6875793B2, “Once-a-day controlled release sulfonylurea formulation” (Penwest Pharmaceuticals Co., priority 1997, dated 2005), which cites them from elsewhere.

One series deals with insulin secretion. Particulars: after an oral dose, diabetic patients.

As for `CC(=O)c1ccc(S(=O)(=O)NC(=O)NC2CCCCC2)cc1` [Acetohexamide], where the note is “alcohol”, the solubility in alcohol result is listed as “slightly soluble”. Further, the solubility in alkali entry (alkali, e.g., 0.1N sodium hydroxide, dilute solutions of alkali hydroxides) is recorded as “soluble”. The solubility in water entry (water) is “practically insoluble”.

For the compound `CCCNC(=O)NS(=O)(=O)c1ccc(Cl)cc1` [Chlorpropamide], the “solubility in water at pH 6.0” value (water, pH 6.0) was 2.2 mg/ml. For the same compound, the “solubility in water at pH 7.3” value (water, pH 7.3) is given as “practically non-soluble”.

On to `Cc1cnc(C(=O)NCCc2ccc(S(=O)(=O)NC(=O)NC3CCCCC3)cc2)cn1` [Glipizide], for which, in the series on insulin secretion, the “time to insulinotropic response to a meal” value is not above 30 min.

With `COc1ccc(Cl)cc1C(=O)NCCc1ccc(S(=O)(=O)NC(=O)NC2CCCCC2)cc1` [Glyburide], under “organic solvents”, the “solubility in organic solvents” value is reported as “soluble”. The solubility in water result (water) is “sparingly soluble”.

As to `Cc1ccc(S(=O)(=O)NC(=O)NN2CCCCCC2)cc1` [Tolazamide], the “solubility at pH 6.0 (mean urinary pH)” value (pH 6.0) is given as 27.8 mg per 100 ml. Further, the solubility in water entry (water) is on record as “relatively insoluble”.

As for `CCCCNC(=O)NS(=O)(=O)c1ccc(C)cc1` [Tolbutamide], under “water”, the solubility in water result was “practically insoluble”.
